Experimental findings from patent publication US6670360B2, “Optically active pyrrolopyridazine derivatives” (Sankyo Company, Limited, priority 1999, dated 2003) are described below.

Assay [1] addresses T1, proton potassium-adenosine triphosphatase (H+·K+-ATPase) (Sus scrofa, UniProt P19156).
T1 construct: A microsomal fraction prepared in accordance with the method of Sachs, et al; from tissue; host or cells: swine gastric mucosa, microsomal fraction (density gradient ultracentrifugation)
Description: Test on activity of proton potassium-adenosine triphosphatase (H+·K+-ATPase). As to conditions: microsomal fraction of swine gastric mucosal layer, pH 6.85, 37° C.; read-out: 50% inhibitory concentration (IC50) against proton-potassium-adenosine triphosphatase. The assay is classed as biochemical. As to the method:
Test on Activity of Proton Potassium-adenosine Triphosphatase (H^+·K^+-ATPase) A microsomal fraction prepared in accordance with the method of Sachs, et al. [J. Bio., Chem., 251, 7690 (1976)] by homogenizing a fresh gastric mucosal layer of swine and then subjecting the homogenate to density gradient ultra centrifugation was employed as a proton potassium-adenosine triphosphatase preparation. A solution (10 μl) of a test compound dissolved in dimethyl sulfoxide was added to 0.75 ml of a 70 mM tris-hydrochloric acid buffer (5 mM magnesium chloride, 20 mM potassium chloride, pH=6.85) containing 30 to 80 μg/ml, in terms of a protein concentration, of an enzyme preparation. The mixture was incubated with 200 times/min of agitation at 37° C. for 45 minutes. The enzymatic reaction was started by adding 0.25 ml of a 8 mM solution of disodium adenosine triphosphate. After this enzymatic reaction was continued for 20 minutes, 1 ml of a 10% trichloroacetic acid-activated charcoal (100 mg) solution was added to terminate the reaction. The reaction mixture was centrifuged (at 4° C. and 3000 rpm) for 15 minutes. […] The amount of inorganic phosphoric acid in a reaction mixture free from potassium chloride was also measured. By subtracting this amount from the amount of inorganic phosphoric acid in the presence of potassium chloride, proton potassium-adenosine triphosphatase activity was determined. […]

Assay [2] concerns Helicobacter pylori strains 9470, 9472 and 9474. Description: Antibacterial action against Helicobacter pylori (MIC, agar dilution). It counts as cell-based. The conditions noted are these: 72 h, cultured at 37° C. for 3 days, microaerophilic conditions, read-out: MIC (Minimum Inhibitory Concentration) against Helicobacter pylori. Here is the method:
Antibacterial Action Against Helicobacter pylori The antibacterial activity of the invention compound was evaluated by using Helicobacter pylori strains 9470, 9472 and 9474 and determining MIC (Minimum Inhibitory Concentration) of the invention compound against Helicobacter pylori. Helicobacter pylori was cultured by plating for 4 days. A medium was prepared by dissolving Brain Heart Infusion Agar (product of Difco Laboratories) in a prescribed amount of distilled water, sterilizing in an autoclave, adding equine blood (product of Nippon Seibutsu Zairyo) to give its concentration of 7% and then solidifying the mixture. Under microaerophilic conditions, Helicobacter pylori which had been cultured at 37° C. for 4 days was suspended in physiological saline to give its viable count of about 10^8 CFU/ml. The suspension was then diluted to 100 times and a portion (about 10 μl) of the diluted suspension was inoculated in a medium for measuring MIC. The medium employed for measuring MIC has the same composition as the preculture medium. A compound of this invention was dissolved in dimethyl sulfoxide (DMSO) and two-fold serial dilutions were made with sterilized water. After mixing the solution and the medium in a ratio of 1:99, a solidified product in the Petri dish was employed as an MIC measuring medium. […]
For orientation: In agar dilution the substance is mixed into plates at graded concentrations.

In the next assay the test system is gastric acid secretion. Description: Gastric acid secretion inhibition activity in pylorus-ligated rats. The assay is classed as in vivo. As to conditions: for 50% inhibitory dose (ID50, mg/kg) against gastric acid secretion: pylorus-ligated rats, oral administration, four hours after administration. The source says:
Gastric Acid Secretion Inhibition Activity After groups of rats, each group consisting of 3 to 5 rats, were fasted overnight, they were subjected to midline abdominal incision and their pylorus was ligated under anesthesia with ether. The stomach and duodenum were returned to their original positions in the body, followed by closing at the abdominal incision part. A predetermined amount of a test compound was suspended in an aqueous solution containing 0.5% of sodium carboxymethylcellulose and 0.4% of Tween 80 (Polysorbate 80). The resulting suspension was orally administered to the rats. As a control, an aqueous suspension (suspending solvent) containing 0.5% of sodium carboxymethylcellulose and 0.4% of Tween 80 (Polysorbate 80) was orally administered to other rats. Four hours after administration of the test compound or suspending solvent, the rats were sacrificed by inhalation of CO2 gas. They were subjected to abdominal incision to remove their stomach. The content of the stomach was collected in a glass-made graduated centrifuge tube. After centrifugation, the amount (ml) of the supernatant and the amount (ml) of the precipitate were measured. The precipitate of the amount exceeding 0.5 ml was regarded as coprophage and removed from the data. The supernatant (100 μl) was poured into a test tube. Distilled water (4 ml) was added to the solution, and the solution was titrated to pH 7.0 with 0.01 N sodium hydroxide. A standard acid concentration solution obtained by adding 4 ml of distilled water to 100 μl of 0.1 N hydrochloric acid was titrated in a similar manner. […]

SMILES strings stand for the structures.

T1 sequence (P19156 2-1034 limits assumed): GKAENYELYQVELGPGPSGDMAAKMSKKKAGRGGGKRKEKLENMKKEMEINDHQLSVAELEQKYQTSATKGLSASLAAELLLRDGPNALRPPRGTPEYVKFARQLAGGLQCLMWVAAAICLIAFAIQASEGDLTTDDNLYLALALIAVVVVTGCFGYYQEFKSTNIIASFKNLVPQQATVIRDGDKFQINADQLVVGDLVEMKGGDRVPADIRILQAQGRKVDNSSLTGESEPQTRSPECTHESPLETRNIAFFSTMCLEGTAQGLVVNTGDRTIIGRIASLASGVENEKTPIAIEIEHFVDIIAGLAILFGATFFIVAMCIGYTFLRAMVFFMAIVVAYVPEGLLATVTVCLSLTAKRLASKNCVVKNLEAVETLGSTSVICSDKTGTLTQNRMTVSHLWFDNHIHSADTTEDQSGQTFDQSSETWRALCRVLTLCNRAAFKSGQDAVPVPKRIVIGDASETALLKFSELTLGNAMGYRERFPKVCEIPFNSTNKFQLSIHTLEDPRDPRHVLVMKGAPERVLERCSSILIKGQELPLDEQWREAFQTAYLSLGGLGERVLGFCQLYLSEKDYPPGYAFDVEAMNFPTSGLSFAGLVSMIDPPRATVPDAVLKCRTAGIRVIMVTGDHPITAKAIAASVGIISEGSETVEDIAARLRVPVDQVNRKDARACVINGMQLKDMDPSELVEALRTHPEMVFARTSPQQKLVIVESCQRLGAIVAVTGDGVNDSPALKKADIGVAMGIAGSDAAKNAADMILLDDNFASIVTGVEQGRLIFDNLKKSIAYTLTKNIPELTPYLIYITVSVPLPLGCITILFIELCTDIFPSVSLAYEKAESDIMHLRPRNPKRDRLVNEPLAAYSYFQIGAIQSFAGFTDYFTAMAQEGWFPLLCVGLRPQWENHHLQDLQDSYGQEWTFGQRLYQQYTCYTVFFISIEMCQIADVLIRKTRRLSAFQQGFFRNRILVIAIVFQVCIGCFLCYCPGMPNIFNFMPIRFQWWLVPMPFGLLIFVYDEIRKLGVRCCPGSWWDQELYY
T1 sequence (P18434 whole entry partner): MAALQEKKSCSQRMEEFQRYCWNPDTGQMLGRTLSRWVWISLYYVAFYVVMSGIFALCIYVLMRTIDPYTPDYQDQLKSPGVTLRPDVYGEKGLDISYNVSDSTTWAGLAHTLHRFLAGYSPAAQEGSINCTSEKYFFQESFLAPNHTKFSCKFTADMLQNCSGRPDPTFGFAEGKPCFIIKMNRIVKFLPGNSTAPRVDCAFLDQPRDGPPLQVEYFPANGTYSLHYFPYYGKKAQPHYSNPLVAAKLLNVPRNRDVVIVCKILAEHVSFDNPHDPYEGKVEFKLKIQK

For the compound `Cc1c(C)n(C[C@H]2C[C@@H]2C)c2c(OCc3ccc(F)cc3)nncc12` [Example 1, 7-(4-Fluorobenzyloxy)-2,3-dimethyl-1-[(1S,2S)-2-methylcyclopropylmethyl]pyrrolo[2,3-d]pyridazine], in assay [1], the IC50 was at most 295 nM. For the same compound, the MIC in assay [2] was at most 12.5 µg/mL. Besides, the “effects on gastric acid secretion relative to its racemate (times stronger)” value in the assay with gastric acid secretion (from ID50 values of Table 2, versus racemate (Compound A)) was “about 3 times”. For the same compound, in the assay with gastric acid secretion, the “50% inhibitory dose (ID50, mg/kg) against gastric acid secretion” value is 0.52 mg/kg.
Regarding `Cc1c(C)n(CC2CC2C)c2c(OCc3ccc(F)cc3)nncc12` (racemic) [Compound A, 7-(4-Fluorobenzyloxy)-1-[(E)-2-methylcyclopropylmethyl]-2,3-dimethylpyrrolo[2,3-d]pyridazine (racemate), reference compound], the “50% inhibitory dose (ID50, mg/kg) against gastric acid secretion” value in the assay with gastric acid secretion is 1.64 mg/kg.
